Test [1] relates to sense transfectants (Tr31-5-1, Tr33-1-2, Tr34-4-1 and Tr34-1-1). Description: Mitogenic response ([3H]thymidine) of sense transfectants compared with parental NIH/3T3 cells. Type of test: cell-based, mouse. Here is the method: (§1) FIG. 12 is a graph showing the mitogenic effects of different growth factors to various transfected cell lines. Cells were grown to confluence, changed to Dulbecco's modified Eagle medium containing 0.5% calf serum and grown for two more days. Different growth factors or calf serum was then added to the medium to stimulate cells to grow. [^3 H]thymidine was added 18 hours after addition of the mitogens and cells were incubated for another 6 hours. Bovine aFGF (b-aFGF) represents the truncated forms while human aFGF purified from Tr31-5-1 (rh-aFGF) represents the full-length protein. Cell lines, Tr31-5-1, 33-1-2, 34-1-1, and 34-4-1 are NIH/3T3 derivatives containing the aFGF cDNA construct in the positive orientation; whereas Tr31-11-1 contains aFGF cDNA in the anti-sense orientation.
(§2) Cells transfected with the EDNA coding for the full-length human aFGF were compared with the parental NIH/3T3 cells by determining their responses to various mitogens. […] Therefore, the lack of mitogenic response of Tr31-5-1 and Tr33-1-2 to rh-aFGF is not likely due to the trivial explanation of a defective mitogen. Thus, Tr31-5-1 and Tr33-1-2 may have lost some component of the pathway and these cell lines provide a unique means for elucidating the components responsive to the full-length aFGF.

Test [2] deals with newt KGFR. Description: Binding assay (Scatchard plot) using KPTr2-2 cells and 125I-aFGF. Also on record: species or system newt (Notophthalamus viridescens). To be noted: KPTr2-2 cells, read-out: Kd of newt KGFR toward human aFGF. From the text:
(§3) Binding assays using KPTr2-2 and ^125 I-aFGF have been carried out. […] The Kd is slightly higher than the typical sub-nM range of mammalian KGFR. However, this may reflect the species difference since we used a human ligand for the newt receptor.

The next test relates to Tr31-5-1 cells. Description: Mitogenic response ([3H]thymidine) of Tr31-5-1 cells. Type of test: cell-based, mouse. To be noted: listed as full-length aFGF. Here is the method: as §1, §2
A further test concerns Tr33-1-2 cells. Description: Mitogenic response ([3H]thymidine) of Tr33-1-2 cells. Type of test: cell-based, mouse. The settings on record: listed as full-length aFGF. Here is the method:
as §1, §2

For the next test, the system named is NIH/3T3 cells. Description: Mitogenic response ([3H]thymidine) of NIH/3T3 cells. Type of test: cell-based, mouse. Here is the method: as §1, §2
Another test has as its system Swiss/3T3 cells. Description: Mitogenic response ([3H]thymidine) of Swiss/3T3 cells. Type of test: cell-based.
For test [3], the system named is newt KGFR. Description: Competition assay using KPTr2-2 and 125I-aFGF. It counts as binding, newt (Notophthalamus viridescens). To be noted: KPTr2-2 cells, compared with aFGF.
Text: as §3

Test [4] concerns newt KGFR. Description: Crosslinking of 125I-aFGF to CHO-K1 cells over-expressing newt KGFR (KPTr2-2), competition with excess cold ligand. It counts as binding, newt (Notophthalamus viridescens). The settings on record: 500-fold molar excess of cold ligand, KPTr2-2 cells. Here is the method: CHO cells transfected with pBJ5 vector (lane 1) or with newt KGFR expression vector (lanes 2-4) were crosslinked with ^125 I-aFGF using 0.3 mM disuccinimidyl suberate (DSS). Excess amounts (500-fold) of aFGF (lane 3) or KGF (lane 4) were used to compete with ^125 I-aFGF. Crosslinked products were analyzed on a 7.5% SDS-polyacrylamide gel.
To characterize the newt FGFR EDNA functionally, the newt KGFR were expressed in CHO-K1 cells. The mammalian expression vector, pBJ5, which contains a chimeric promoter derived from HTLV-I and SV40, was used to express the newt KGFR and FGFR2 cDNA. […] The crosslinked product is absent in KPTr1-8, the CHO cells that were transfected with the pBJ5 vector alone. The crosslinked product thus appears to be specific. Similarly, a cell line over-expressing the human KGFR (T-1063-29-2 from S. A. Aaronson, NIH) was able to produce a somewhat smaller crosslinked product than the newt KGFR. Antibodies (both monoclonal and polyclonal) directed against a peptide from the carboxyl terminus of the newt FGFR2 are generated.

Entries after “also recorded” stand apart in the source; their conditions may differ.

With PDGF [reference compound], in test [1] (sense transfectants Tr31-5-1, Tr33-1-2, Tr34-4-1 and Tr34-1-1), the “mitogenic response relative to parental NIH/3T3 cells” value is “stronger mitogenic responses than NIH/3T3 cells”.

Broadly, the Kd is a measure of binding affinity in units of concentration. In the case of “human aFGF: human aFGF purified from Tr31-5-1 (rh-aFGF) represents the full-length protein”, the Kd with newt KGFR [2] is 1.3 nM. Also, the mitogenic response result is “failed to give any mitogenic responses; also recorded: do not respond” in the test on Tr31-5-1 cells, “failed to give any mitogenic responses; also recorded: do not respond” in the test on Tr33-1-2 cells, “responded to the mitogenic stimulation” in the test on NIH/3T3 cells and “responded to the mitogenic stimulation” in the test on Swiss/3T3 cells. For the same molecule, the “mitogenic response relative to parental NIH/3T3 cells” value in test [1] (sense transfectants with the exception of Tr33-1-2) is on record as “respond less strongly than the parental NIH/3T3 cells”.

As to “human recombinant bFGF: human recombinant basic fibroblast growth factor”, in the test with newt KGFR [3], the “competition with 125I-aFGF” value is “does not compete as well as aFGF”.

B1: human recombinant KGF: human recombinant keratinocyte growth factor (protein, UniProt P21781 32-194, looked up)
Fibroblast growth factor 7: CNDMTPEQMATNVNCSSPERHTRSYDYMEGGDIRVRRLFCRTQWYLRIDKRGKVKGTQEMKNNYNIMEIRTVAVGIVAIKGVESEFYLAMNKEGKLYAKKECNEDCNFKELILENHYNTYASAKWTHNGGEMFVALNQKGIPVRGKKTKKEQKTAHFLPMAIT
For B1, the “competition of the 150 kDa crosslinked product” value with newt KGFR [4] is recorded as “successfully competed off”.

The values above are taken from patent publication US5925528A, “Murine cell lines which over produce acidic fibroblast growth factor (aFGF) and method of using same” (Ohio State University Research Foundation, priority 1997, dated 1999).
